Experimental data: US20240109900A1, “AZABICYCLIC SHP2 INHIBITORS” (IRBM S.P.A., priority 2021, published 2024)
Where two headings read alike, the source gives them in different places.

Key:
[1] = biological target: SHP-2 enzyme (Met1-Leu525) (Homo sapiens (Human), UniProt Q06124); test: SHP2 inhibition enzymatic assay; format: biochemical; details: read-out: SHP2wt-IC50
Method in brief: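 Compounds were preincubated 30 min with 0.5 nM SHP-2 (Met1-Leu525) plus 500 nM IRS1 activating peptide (pH 7.2 HEPES, 5 mM DTT), then 75 μM DiFMUP substrate reacted 30 min at room temperature. After bpV quench, DiFMUP fluorescence gave % inhibition; four-parameter logistic fit yielded IC50.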

[2] = tested on: ERK phosphorylation in KYSE-520 cells; test: Phospho-ERK cellular assay; format: cell-based; details: KYSE-520 cells, 2 h at 37° C., phospho-ERK1/2 (Thr202/Tyr204) TR-FRET, read-out: PERK IC50
Method in brief: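 TR-FRET read-out of ERK1/2 Thr202/Tyr204 phosphorylation was taken after overnight antibody incubation at room temperature. Before that, KYSE-520 cells were treated 2 h at 37 °C with compound dilutions and lysed 30 min. Percent inhibition relative to vehicle and cell-free wells was fitted four-parametrically to give IC50.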

[3] = 0.5 nM SHP-2 activated by 500 nM IRS1 peptide, 75 μM DiFMUP substrate

Chain of SHP-2 enzyme (Met1-Leu525) (Q06124 1-525): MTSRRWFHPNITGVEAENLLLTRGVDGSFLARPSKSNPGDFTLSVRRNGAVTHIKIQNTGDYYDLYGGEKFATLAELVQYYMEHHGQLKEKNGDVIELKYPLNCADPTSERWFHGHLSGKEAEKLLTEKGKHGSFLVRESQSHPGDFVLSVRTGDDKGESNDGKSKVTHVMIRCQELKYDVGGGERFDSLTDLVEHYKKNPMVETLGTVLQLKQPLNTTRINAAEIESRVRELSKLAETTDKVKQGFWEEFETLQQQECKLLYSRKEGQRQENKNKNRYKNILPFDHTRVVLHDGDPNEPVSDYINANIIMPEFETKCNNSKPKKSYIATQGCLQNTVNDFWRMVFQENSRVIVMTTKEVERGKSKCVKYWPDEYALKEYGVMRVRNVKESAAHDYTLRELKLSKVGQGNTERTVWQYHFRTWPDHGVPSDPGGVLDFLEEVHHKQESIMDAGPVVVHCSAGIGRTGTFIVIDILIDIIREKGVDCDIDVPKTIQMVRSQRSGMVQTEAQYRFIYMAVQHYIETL

| Structure (SMILES) | IC50 [1, 3] [nM] | IC50 ([2]; Homo sapiens, KYSE-520, 2 h) [nM] | IC50 [1] [nM] | IC50 ([2]; Homo sapiens) [nM] | IC50 [2] [nM] |
| --- | --- | --- | --- | --- | --- |
| NC[C@]1(c2ccccc2F)[C@@H]2CCN(c3cnc4c(-c5ccc(-c6noc(O)n6)cc5Cl)n[nH]c4n3)C[C@@H]21 [Example 295, 3-(4-(6-((1S,6R,7R)-7-(aminomethyl)-7-(2-fluorophenyl)-3-azabicyclo[4.1.0]heptan-3-yl)-1H-pyrazolo[3,4-b]pyrazin-3-yl)-3-chlorophenyl)-1,2,4-oxadiazol-5-ol] | < 500 | < 1000 |  |  |  |
| NC[C@]1(c2ccccc2F)[C@@H]2CCN(c3cnc(Sc4ccnc(-n5cccn5)c4Cl)cn3)C[C@@H]21 [Example 388, ((1S,6R,7R)-3-(5-((3-chloro-2-(1H-pyrazol-1-yl)pyridin-4-yl)thio)pyrazin-2-yl)-7-(2-fluorophenyl)-3-azabicyclo[4.1.0]heptan-7-yl)methanamine] | < 500 | < 1000 |  |  |  |
| Cc1csc(C2(CN)C3CCN(c4nc5nc(Sc6ccnc(N)c6Cl)cnc5[nH]4)CC32)n1 (stereo not shown) [Example 70, 4-((2-(7-(aminomethyl)-7-(4-methylthiazol-2-yl)-3-azabicyclo[4.1.0]heptan-3-yl)-1H-imidazo[4,5-b]pyrazin-5-yl)thio)-3-chloropyridin-2-amine] |  |  | < 500 | < 1000 |  |
| Cc1csc(C2(CN)C3CCN(c4cnc5c(-c6cccc7c6OCO7)n[nH]c5n4)CC32)n1 (stereo not shown) [Example 91, (3-(3-(Benzo[d][1,3]dioxol-4-yl)-1H-pyrazolo[3,4-b]pyrazin-6-yl)-7-(4-methylthiazol-2-yl)-3-azabicyclo[4.1.0]heptan-7-yl)methanamine] | < 500 | < 1000 |  |  |  |
| Cc1csc([C@@]2(CN)[C@@H]3CN(c4cnc5c(-c6ccc7nn(CC(F)(F)F)cc7c6Cl)n[nH]c5n4)C[C@@H]32)n1 [Example 518] | < 500 |  |  |  | < 1000 |
| Cn1cc2c(Cl)c(-c3n[nH]c4nc(N5C[C@@H]6[C@H](C5)[C@@]6(CN)c5cnsn5)cnc34)ccc2n1 [Example 490, ((1R,5S,6r)-3-(3-(4-chloro-2-methyl-2H-indazol-5-yl)-1H-pyrazolo[3,4-b]pyrazin-6-yl)-6-(1,2,5-thiadiazol-3-yl)-3-azabicyclo[3.1.0]hexan-6-yl)methanamine] | < 500 | < 1000 |  |  |  |
| Cn1c(-c2n[nH]c3nc(N4CC[C@@H]5[C@H](C4)[C@@]5(CN)c4ccccc4F)cnc23)ccc(Cl)c1=O [Example 278, 6-(6-((1S,6R,7R)-7-(aminomethyl)-7-(2-fluorophenyl)-3-azabicyclo[4.1.0]heptan-3-yl)-1H-pyrazolo[3,4-b]pyrazin-3-yl)-3-chloro-1-methylpyridin-2(1H)-one] | < 500 | < 1000 |  |  |  |
| CC(C)Oc1ccc(-c2n[nH]c3nc(N4CC[C@@H]5[C@H](C4)[C@@]5(CN)c4ccccc4F)cnc23)c2cccnc12 [Example 138, ((1S,6R,7R)-7-(2-fluorophenyl)-3-(3-(8-isopropoxyquinolin-5-yl)-1H-pyrazolo[3,4-b]pyrazin-6-yl)-3-azabicyclo[4.1.0]heptan-7-yl)methanamine] | < 500 | < 1000 |  |  |  |
| NC[C@]1(c2ccccc2F)[C@@H]2CCN(c3cnc4c(C#Cc5ccccc5F)n[nH]c4n3)C[C@@H]21 [Example 334, ((1S,6R,7R)-7-(2-fluorophenyl)-3-(3-((2-fluorophenyl)ethynyl)-1H-pyrazolo[3,4-b]pyrazin-6-yl)-3-azabicyclo[4.1.0]heptan-7-yl)methanamine] | < 500 | < 1000 |  |  |  |
| NCC1(c2ccsc2)C2CCN(c3cnc4c(-c5cccc(Cl)c5Cl)n[nH]c4n3)CC21 (stereo not shown) [Example 94, (3-(3-(2,3-dichlorophenyl)-1H-pyrazolo[3,4-b]pyrazin-6-yl)-7-(thiophen-3-yl)-3-azabicyclo [4.1.0]heptan-7-yl)methanamine] | < 500 | < 1000 |  |  |  |
| Cc1cc(C2(CN)C3CCN(c4cnc5c(-c6ccnc7c6OC[C@@H]6CCCN76)n[nH]c5n4)CC32)no1 (stereo partly drawn) [Example 29, (7-(5-methylisoxazol-3-yl)-3-(3-((S)-6a,7,8,9-tetrahydro-6H-pyrido[3,2-b]pyrrolo[1,2-d][1,4]oxazin-4-yl)-1H-pyrazolo[3,4-b]pyrazin-6-yl)-3-azabicyclo[4.1.0]heptan-7-yl)methanamine] | 500 to 3000 | > 5000 |  |  |  |
| Cc1csc(C2(CN)C3CCN(c4cnc5c(-c6cccc(Cl)c6)n[nH]c5n4)CC32)n1 (stereo not shown) [Example 85, (3-(3-(3-chlorophenyl)-1H-pyrazolo[3,4-b]pyrazin-6-yl)-7-(4-methylthiazol-2-yl)-3-azabicyclo[4.1.0]heptan-7-yl)methanamine] | < 500 | < 1000 |  |  |  |
| Cn1cc(C2(CN)C3CCN(c4cnc5c(-c6cccc(Cl)c6Cl)n[nH]c5n4)CC32)nn1 (stereo not shown) [Example 13, (3-(3-(2,3-dichlorophenyl)-1H-pyrazolo[3,4-b]pyrazin-6-yl)-7-(1-methyl-1H-1,2,3-triazol-4-yl)-3-azabicyclo[4.1.0]heptan-7-yl)methanamine] | < 500 | < 1000 |  |  |  |
| NC[C@]1(c2ccccc2F)[C@@H]2CCN(c3cnc4c(-c5ccc(C(=O)O)c(Cl)c5Cl)n[nH]c4n3)C[C@@H]21 [Example 227, 4-(6-((1S,6R,7R)-7-(aminomethyl)-7-(2-fluorophenyl)-3-azabicyclo[4.1.0]heptan-3-yl)-1H-pyrazolo[3,4-b]pyrazin-3-yl)-2,3-dichlorobenzoic acid] | < 500 | > 5000 |  |  |  |
| Cc1cc([C@@]2(CN)[C@@H]3CCN(c4cnc5c(-c6cc(F)cc7ncccc67)n[nH]c5n4)C[C@@H]32)no1 [Example 130, ((1S,6R,7S)-3-(3-(7-fluoroquinolin-5-yl)-1H-pyrazolo[3,4-b]pyrazin-6-yl)-7-(5-methylisoxazol-3-yl)-3-azabicyclo[4.1.0]heptan-7-yl)methanamine] | 500 to 3000 | < 1000 |  |  |  |
| Cc1c(-c2n[nH]c3nc(N4CC[C@@H]5[C@H](C4)[C@@]5(CN)c4ccccc4F)cnc23)ccc2c1nnn2C [Example 204, ((1S,6R,7R)-3-(3-(1,4-dimethyl-1H-benzo[d][1,2,3]triazol-5-yl)-1H-pyrazolo[3,4-b]pyrazin-6-yl)-7-(2-fluorophenyl)-3-azabicyclo[4.1.0]heptan-7-yl)methanamine] | < 500 | < 1000 |  |  |  |
| NCC1(c2ccccc2F)C2CCN(c3cnc4c(-c5cccc6ncccc56)n[nH]c4n3)CC21 (stereo not shown) [Example 5, (7-(2-fluorophenyl)-3-(3-(quinolin-5-yl)-1H-pyrazolo[3,4-b]pyrazin-6-yl)-3-azabicyclo[4.1.0]heptan-7-yl)methanamine] | < 500 | < 1000 |  |  |  |
| Cc1nccc(Sc2ccc3nc(N4CC[C@@H]5[C@H](C4)[C@@]5(CN)c4cc(F)ccc4F)cnc3n2)c1F [Example 426, ((1S,6R,7R)-7-(2,5-difluorophenyl)-3-(6-((3-fluoro-2-methylpyridin-4-yl)thio)pyrido[2,3-b]pyrazin-2-yl)-3-azabicyclo[4.1.0]heptan-7-yl)methanamine] | < 500 | < 1000 |  |  |  |
| Cc1cc([C@@]2(CN)[C@@H]3CCN(c4cnc5c(-c6cncc7ncccc67)n[nH]c5n4)C[C@@H]32)no1 [Example 148, ((1S,6R,7S)-3-(3-(1,7-naphthyridin-5-yl)-1H-pyrazolo[3,4-b]pyrazin-6-yl)-7-(5-methylisoxazol-3-yl)-3-azabicyclo[4.1.0]heptan-7-yl)methanamine] | < 500 | < 1000 |  |  |  |
| NC[C@]1(c2ccccc2F)[C@@H]2CCN(c3cnc4c(-c5ccc6nn(CC(N)=O)cc6c5Cl)n[nH]c4n3)C[C@@H]21 [Example 324, 2-(5-(6-((1S,6R,7R)-7-(aminomethyl)-7-(2-fluorophenyl)-3-azabicyclo[4.1.0]heptan-3-yl)-1H-pyrazolo[3,4-b]pyrazin-3-yl)-4-chloro-2H-indazol-2-yl)acetamide] | < 500 | < 1000 |  |  |  |
| COCc1ccc(-c2n[nH]c3nc(N4CC[C@@H]5[C@H](C4)[C@@]5(CN)c4cc(C)on4)cnc23)c2cccnc12 [Example 128, ((1S,6R,7S)-3-(3-(8-(methoxymethyl)quinolin-5-yl)-1H-pyrazolo[3,4-b]pyrazin-6-yl)-7-(5-methylisoxazol-3-yl)-3-azabicyclo[4.1.0]heptan-7-yl)methanamine] | < 500 | < 1000 |  |  |  |
| NC[C@]1(c2ccccc2F)[C@@H]2CCN(c3cnc4c(-c5ccc(C(N)=O)c(Cl)c5Cl)n[nH]c4n3)C[C@@H]21 [Example 241, 4-(6-((1S,6R,7R)-7-(aminomethyl)-7-(2-fluorophenyl)-3-azabicyclo[4.1.0]heptan-3-yl)-1H-pyrazolo[3,4-b]pyrazin-3-yl)-2,3-dichlorobenzamide] | < 500 | < 1000 |  |  |  |
| NC[C@]1(c2ccccc2F)[C@@H]2CCN(c3cnc4c(-c5ccc6[nH]c(=O)ccc6c5)n[nH]c4n3)C[C@@H]21 [Example 234, 6-(6-((1S,6R,7R)-7-(aminomethyl)-7-(2-fluorophenyl)-3-azabicyclo[4.1.0]heptan-3-yl)-1H-pyrazolo[3,4-b]pyrazin-3-yl)quinolin-2(1H)-one] | < 500 | < 1000 |  |  |  |
